Test results from paper PMC10253817, “Design, Pharmacological Characterization, and Molecular Docking of Minimalist Peptidomimetic Antagonists of α4β1 Integrin” (International Journal of Molecular Sciences, 2023).

Assays:
α4β1 integrin = target: T1, α4β1 integrin (Homo sapiens, UniProt P05556+P13612); assay: LDV-FITC competitive binding on intact Jurkat E6.1 cells; settings: intact Jurkat E6.1 cells vs. LDV-FITC; mean ± SD
T1 construct: Jurkat E6.1 cell line, which endogenously expresses α4β1 integrin; host or cells: Jurkat E6.1
Experimental: The assays were performed as previously described with the following modifications. Jurkat E6.1 cells were resuspended (50,000 cells/sample) in 0.1% BSA in a HEPES buffer (NaCl 110 mM; KCl 10 mM; Glucose 10 mM; MgCl2 1 mM; CaCl2 1.5 mM; HEPES 30 mM; pH 7.4) and pre-incubated with different concentrations (10^−11–10^−5 M) of compounds for 20–30 min at RT. Then, LDV-FITC (5 µM) was added to the cells, and they were incubated in the dark for an additional 30 min at RT. At the end of the incubation with LDV-FITC, cells were washed with 0.1% BSA in a HEPES buffer. The FITC fluorescence intensity was measured using an EnSpire Multimode Plate Reader (PerkinElmer, Waltham, MA, USA). The data were plotted as LDV-FITC specific bindings versus the concentration of the competitor, and the data were fitted to a one-site competition equation; the equilibrium dissociation constant Ki was calculated from the IC50 using the Cheng–Prusoff equation.

AKT = assay: Western blot, FN-induced AKT phosphorylation in Jurkat E6.1 cells; format: cell-based; settings: Jurkat E6.1 cells pre-treated with 10^−7, 10^−8, 10^−9 M, then FN (10 µg/mL) 30 min
Experimental: (§1) To this purpose, Jurkat E6.1 cells were pre-treated with different concentrations (10^−7, 10^−8, 10^−9 M) of the compounds and then exposed to FN (10 µg/mL) for 30 min. […] In addition, the effects observed on intracellular signaling were concentration-dependent, except for compound 13 on AKT activation.
(§2) Western blot analysis was performed as previously described, with the following modifications. […] For integrin antagonists, JurkatE6.1 cells were subsequently incubated with FN (10 μg/mL) at 37 °C for 30 min. At the end of the incubation period, Jurkat E6.1 cells were lysed on ice using T-PER® (Tissue Protein Extraction Reagent, Life Technologies Italia, Milan, Italy), supplemented with a phosphatase inhibitor cocktail. Protein extracts were quantified using a BCA Protein Assay (Pierce, Rockford, IL, USA). The proteins from the cytoplasmatic extract were denatured at 95 °C for 3 min, then equal amounts of protein samples (30–50 μg) were loaded and separated via 12% SDS-PAGE. Proteins were transferred onto a nitrocellulose membrane (Biorad, Hercules, CA, USA), which was blocked with 5% nonfat milk in a Tris-buffered saline (10 mM Tris-HCl, pH 8, containing 150 mM NaCl) containing 0.1% Tween 20 for 1 h at room temperature. Membranes were stained overnight at 4 °C with anti-actin antibody (1:5000, Merck Life Science, Milan, Italy) or with anti-phospho-ERK1/2, anti-total ERK1/2, anti-phospho-AKT, anti-total-AKT, or anti-phospho-JNK antibodies (1:1000; Cell Signaling Technology, Danvers, MA, USA). The membranes were incubated with anti-rabbit peroxidase-conjugated secondary antibodies at a dilution of 1:8000. Blots were developed with a SuperSignal West Pico chemiluminescent substrate. Protocols for digital image acquisition and analysis have previously been described.

ERK1/2 = assay: Western blot, FN-induced ERK1/2 phosphorylation in Jurkat E6.1 cells; format: cell-based; settings: Jurkat E6.1 cells pre-treated with 10^−7, 10^−8, 10^−9 M, then FN (10 µg/mL) 30 min
Experimental: as §1, §2

α5β1 integrin = target: T2, α5β1 integrin (Homo sapiens, UniProt P05556+P08648); assay: α5β1 integrin-mediated K562 cell adhesion to FN; format: cell-based; settings: K562 cell adhesion to FN (10 μg/mL)
T2 construct: K562 cells, mainly expressing α5β1, which shares a β1 subunit with the heterodimer α4β1; host or cells: K562 (PMA-treated)
Experimental: To this purpose, the ability of the best peptidomimetics to modulate cell adhesion mediated by integrins other than α4β1 was evaluated in HL60 cells, mainly expressing the leukocyte integrin αMβ2, and on K562 cells, mainly expressing α5β1, which shares a β1 subunit with the heterodimer α4β1. […] In contrast, 13 was a moderate promoter of cell adhesion mediated by αMβ2 integrin, behaving as an agonist. Regarding α5β1 integrin, none of the peptidomimetics employed were able to modulate K562 cell adhesion, thus being shown to be completely ineffective toward α5β1 integrin. The reference compound DS-70 was ineffective toward both αMβ2 and α5β1 integrins under the same experimental conditions (Table 3).
For adhesion assays mediated by α5β1 integrin, K562 cells were pre-treated with PMA (64.85 nM, Merck Life Science, Milan, Italy) for 48 h to enhance α5β1 integrin expression. 96-well plates were coated via passive adsorption with FN (10 μg/mL) overnight at 4 °C; then, the following day, plates were blocked by adding 100 μL/well of a blocking solution (1% BSA in PBS) and incubated for 1 h at 37 °C. K562 cells were counted and preincubated with various concentrations (10^−10–10^−4 M) of the peptides or with the vehicle for 30 min at RT. Then, K562 cells were plated (50,000 cells/well) and incubated at RT for 1 h. The wells were then washed three times with 1% BSA in PBS, and 50 μL of hexosaminidase substrate was added and incubated at RT for 1 h. After the addition of 100 μL of stopping solution (50 mM glycine and 5 mM EDTA, pH 10.4), plates were read at 405 nm in an EnSpire Multimode Plate Reader.
In both types of adhesion assay, the number of adherent cells was determined via comparison with a standard curve made in the same plate. Experiments were carried out in quadruplicate and repeated at least three times. Data analysis and EC50 or IC50 values were calculated using GraphPad Prism 9.5.1 (GraphPad Software, San Diego, CA, USA).
Cell culture. Jurkat E6.1 (expressing both α4β1 and αLβ2 integrin), K562 (expressing α5β1 integrin) and HL60 (expressing α Mβ2 integrin) cell lines were purchased from ATCC (Rockville, MD, USA); these cells were routinely cultured in RPMI-1640 (Life Technologies) supplemented with 1% glutamine and 10% fetal bovine serum (FBS). Cells were grown at 37 °C under 5% CO 2 humidified atmosphere. 40 h before the adhesion assays, K562 and HL60 cells were treated with 25 nM or 40 nM phorbol 12 -myristate 13-acetate (PMA; Sigma-Aldrich), respectively, to induced cell differentiation and to increased α5β1 or αMβ2 integrin expression on cell surface (Baiula et al., 2016).
Cell adhesion assays . Concentration-response curves, obtained from cell adhesion assays performed in […]
Figure S1. […]

T1 sequence (P13612 34-1032): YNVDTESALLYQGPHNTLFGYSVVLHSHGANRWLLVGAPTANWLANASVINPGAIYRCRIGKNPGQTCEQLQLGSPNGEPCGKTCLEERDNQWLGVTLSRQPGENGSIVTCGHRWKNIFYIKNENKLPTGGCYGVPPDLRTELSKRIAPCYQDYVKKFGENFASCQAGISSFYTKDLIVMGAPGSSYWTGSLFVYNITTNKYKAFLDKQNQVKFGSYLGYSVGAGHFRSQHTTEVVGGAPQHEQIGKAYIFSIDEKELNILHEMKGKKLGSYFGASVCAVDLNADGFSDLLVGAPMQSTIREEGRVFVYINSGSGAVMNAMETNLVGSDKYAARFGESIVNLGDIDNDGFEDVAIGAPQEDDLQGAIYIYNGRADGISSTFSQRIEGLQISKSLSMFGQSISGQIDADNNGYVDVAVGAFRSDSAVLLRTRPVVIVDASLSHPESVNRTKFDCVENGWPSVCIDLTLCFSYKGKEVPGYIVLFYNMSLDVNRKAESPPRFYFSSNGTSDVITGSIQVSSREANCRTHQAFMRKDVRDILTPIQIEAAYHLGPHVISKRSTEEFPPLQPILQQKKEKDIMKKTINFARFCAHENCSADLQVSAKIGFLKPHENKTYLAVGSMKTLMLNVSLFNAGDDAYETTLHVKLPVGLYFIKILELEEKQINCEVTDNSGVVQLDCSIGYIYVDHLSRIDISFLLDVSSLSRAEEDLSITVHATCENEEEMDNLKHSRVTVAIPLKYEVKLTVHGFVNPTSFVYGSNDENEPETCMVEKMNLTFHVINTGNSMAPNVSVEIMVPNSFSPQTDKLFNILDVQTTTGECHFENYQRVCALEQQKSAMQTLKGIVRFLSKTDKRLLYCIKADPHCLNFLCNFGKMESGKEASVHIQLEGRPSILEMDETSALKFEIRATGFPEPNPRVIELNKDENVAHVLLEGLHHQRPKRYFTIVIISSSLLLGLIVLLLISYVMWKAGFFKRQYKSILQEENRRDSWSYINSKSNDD
T1 sequence (P05556 21-798): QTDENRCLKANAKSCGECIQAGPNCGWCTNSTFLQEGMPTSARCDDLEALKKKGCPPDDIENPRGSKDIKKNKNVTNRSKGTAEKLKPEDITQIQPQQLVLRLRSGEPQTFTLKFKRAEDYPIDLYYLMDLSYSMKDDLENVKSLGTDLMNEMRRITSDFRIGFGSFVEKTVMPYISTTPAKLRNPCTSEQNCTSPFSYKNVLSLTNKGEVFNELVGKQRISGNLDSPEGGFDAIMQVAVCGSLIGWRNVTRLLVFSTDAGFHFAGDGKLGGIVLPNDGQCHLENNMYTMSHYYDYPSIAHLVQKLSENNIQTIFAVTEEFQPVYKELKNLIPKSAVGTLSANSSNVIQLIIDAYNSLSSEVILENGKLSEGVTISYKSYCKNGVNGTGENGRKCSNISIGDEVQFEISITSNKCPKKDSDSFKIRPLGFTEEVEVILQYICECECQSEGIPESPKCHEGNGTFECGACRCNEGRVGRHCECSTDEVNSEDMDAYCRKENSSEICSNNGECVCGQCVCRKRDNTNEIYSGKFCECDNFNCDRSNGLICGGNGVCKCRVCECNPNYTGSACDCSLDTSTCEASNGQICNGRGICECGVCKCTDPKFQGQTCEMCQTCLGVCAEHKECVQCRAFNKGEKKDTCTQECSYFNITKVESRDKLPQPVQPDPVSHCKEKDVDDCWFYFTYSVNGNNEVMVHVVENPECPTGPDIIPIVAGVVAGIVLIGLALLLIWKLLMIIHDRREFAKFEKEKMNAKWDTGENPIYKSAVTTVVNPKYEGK
T2 sequence (P08648 42-894 limits assumed): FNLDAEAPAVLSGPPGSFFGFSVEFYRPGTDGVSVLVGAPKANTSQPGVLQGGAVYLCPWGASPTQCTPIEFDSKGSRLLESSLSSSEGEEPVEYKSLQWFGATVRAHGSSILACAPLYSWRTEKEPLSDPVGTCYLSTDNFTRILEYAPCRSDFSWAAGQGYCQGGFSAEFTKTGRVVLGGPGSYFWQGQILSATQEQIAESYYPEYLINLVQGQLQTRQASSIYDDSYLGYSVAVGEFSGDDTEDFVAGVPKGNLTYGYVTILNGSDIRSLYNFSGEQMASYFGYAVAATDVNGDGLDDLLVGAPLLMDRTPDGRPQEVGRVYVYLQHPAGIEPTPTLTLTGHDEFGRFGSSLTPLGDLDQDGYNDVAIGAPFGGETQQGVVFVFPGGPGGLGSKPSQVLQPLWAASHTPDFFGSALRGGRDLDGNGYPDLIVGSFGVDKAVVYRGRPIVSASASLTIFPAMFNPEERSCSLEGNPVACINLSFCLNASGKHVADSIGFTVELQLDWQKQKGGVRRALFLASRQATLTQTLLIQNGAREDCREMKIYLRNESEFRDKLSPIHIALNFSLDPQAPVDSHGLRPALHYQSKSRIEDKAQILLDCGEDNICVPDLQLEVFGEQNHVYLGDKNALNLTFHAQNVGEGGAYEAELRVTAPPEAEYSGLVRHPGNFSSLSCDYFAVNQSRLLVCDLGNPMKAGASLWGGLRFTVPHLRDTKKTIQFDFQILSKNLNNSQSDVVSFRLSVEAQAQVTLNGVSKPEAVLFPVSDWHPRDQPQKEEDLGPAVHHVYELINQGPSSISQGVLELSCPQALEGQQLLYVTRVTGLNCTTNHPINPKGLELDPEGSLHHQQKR
T2 sequence (P08648 895-1049 partner limits assumed): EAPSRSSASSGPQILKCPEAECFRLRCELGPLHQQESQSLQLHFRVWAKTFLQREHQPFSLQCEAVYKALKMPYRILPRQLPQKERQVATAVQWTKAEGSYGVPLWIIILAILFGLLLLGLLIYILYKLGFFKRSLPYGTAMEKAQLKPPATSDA
T2 sequence (P05556 21-798): as the sequence (P05556 21-798) above

Ki (α4β1 integrin)	IC50 (α5β1 integrin)	SMILES	FN-induced AKT phosphorylation (AKT)	FN-induced ERK1/2 phosphorylation (ERK1/2)
0.0167 ± 0.0052 µM	> 5 µM	Cc1ccccc1NC(=O)Nc1ccc(CNC(=O)C[C@@H](C)NC(=O)CC(=O)O)cc1 [compound 13]	significantly prevented	significantly prevented
0.0013 ± 0.0007 µM	> 5 µM	CC(=O)N[C@@H](CNC(=O)Cc1ccc(NC(=O)Nc2ccccc2C)cc1)C(=O)NCC(=O)O [compound 3]	significantly prevented	significantly prevented
0.0019 ± 0.0008 µM	> 5 µM	CCCNC(=O)[C@@H](CC(=O)NCC(=O)O)NC(=O)Cc1ccc(NC(=O)Nc2ccccc2C)cc1 [compound 8]	significantly prevented	significantly prevented
